Laboratory results: PMC7365463, “Oxfendazole mediates macrofilaricidal efficacy against the filarial nematode Litomosoides sigmodontis in vivo and inhibits Onchocerca spec. motility in vitro” (PLoS Neglected Tropical Diseases, 2020)
Like-named read-outs stand apart in the source and are kept apart here.

Columns and labels:
Litomosoides sigmodontis [1] = system: Litomosoides sigmodontis; design: method as in Reddy 1983 (Ref. 15); details: L3 (mite), Mastomys natalensis, patent phase, necropsy 43 days p.t., ref Reddy 1983 (Ref. 15), cited from earlier work
Brugia pahangi [2] = details: jirds, necropsy 5 weeks p.t., ref Surin 1990 (Ref. 11), cited from earlier work
[3] = system: Onchocerca gutturosa adult male worms; test: O. gutturosa adult male worm 5-day motility assay
[4] = system: Onchocerca gutturosa adult male worms; test: O. gutturosa adult worm MTT/formazan viability assay; details: 120 h
mammalian tubulin = system: mammalian tubulin; design: method as in PMID 6712717, PMID 1554382; details: cited from earlier work
Litomosoides sigmodontis [5] = test: Patent L. sigmodontis infection in jirds (adult worms, microfilaremia, embryogenesis); details: for jirds with few microfilariae in the peripheral blood: between weeks 14 and 16 after treatment
Brugia pahangi [6] = system: Brugia pahangi; design: method as in Reddy 1983 (Ref. 15); details: L3 (SC), Mastomys natalensis, patent phase, necropsy 43 days p.t., ref Reddy 1983 (Ref. 15), cited from earlier work
[7] = design: method as in PMID 30745383; details: daily doses up to 60 mg/kg; cited from earlier work
[8] = system: Onchocerca lienalis microfilariae; test: O. lienalis microfilariae 5-day motility assay; details: 120 h
[9] = system: Litomosoides sigmodontis adult worms; test: L. sigmodontis-infected mice, adult worm burden; assay type: in vivo
Experimental: (Whatman 903 Protein […], Sigma-Aldrich, Germany). […] Mice were sacrificed at 75-78 dpi. […] The mice were anesthetized then sacrificed by bleeding (at MNHN) or by an overdose of isoflurane (at IMMIP). At the MNHN, the pleural cavity was washed 10 times with 1 ml of cold phosphate buffered saline (PBS) to collect filariae as previously described. At the IMMIP, the pleural cavity was washed with 1 ml of PBS. In both laboratories the remaining worms were isolated using forceps. The recovered L. sigmodontis adult worms were counted and analyzed by light microscopy to identify males and females.

[10] = human
L. loa microfilariae = system: L. loa microfilariae; design: method as in PMID 30926803; details: L. loa mouse model; cited from earlier work
[11] = design: method as in earlier work; details: dogs; cited from earlier work
Onchocerca lupi = system: Onchocerca lupi; design: method as in PMID 29377880; details: Onchocerca lupi-infected dogs; cited from earlier work
mouse lymphoma assay = system: mouse lymphoma assay; design: method as in earlier work; details: in vitro; cited from earlier work
[12] = mice, PO 2 x 2.5 mg/kg for 1 day, start 33 dpi, 75 dpi
[13] = mice, PO 2 x 2.5 mg/kg for 5 days, start 33 dpi, 75 dpi
[14] = mice, PO 2 x 2.5 mg/kg for 10 days, start 33 dpi, 75 dpi
[15] = mice, PO BID 2 x 1 mg/kg for 5 days from 35 dpi, necropsy 75 dpi
[16] = mice, PO BID 2 x 5 mg/kg for 5 days from 35 dpi, necropsy 75 dpi

## COC(=O)Nc1nc2ccc([S+]([O-])c3ccccc3)cc2[nH]1 (centres unmarked) [oxfendazole]
Litomosoides sigmodontis [1]; SC 100mg/kg 5 cons. days
  Reduction of worm burden: 100%
Litomosoides sigmodontis [1]; per os 150mg/kg 5 cons. days
  Reduction of worm burden: 0%
Brugia pahangi [2]; 15Ad (IP), SC 50-25-12.5mg/kg 5 cons. days, 4 days p.i.
  Reduction of worm burden: 100%
Brugia pahangi [2]; 50L3 (IP), SC 25mg/kg 5 cons. days, 70 days p.i.
  Reduction of worm burden: 93.5%
Brugia pahangi [2]; 50L3 (IP), SC 50mg/kg 5 cons. days, 70 days p.i.
  Reduction of worm burden: 100%
[3]; 1.25 x 10^-5 M, 24 h
  Motility Reduction (%): 10%
[3]; 1.25 x 10^-5 M, 48 h
  Motility Reduction (%): 3%
[3]; 1.25 x 10^-5 M, 72 h
  Motility Reduction (%): 23%
[3]; 1.25 x 10^-5 M, 96 h
  Motility Reduction (%): 31%
[3]; 1.25 x 10^-5 M, 120 h
  Motility Reduction (%): 40%
[3]; 3.1 x 10^-6 M, 24 h
  Motility Reduction (%): 10%
[3]; 3.1 x 10^-6 M, 48 h
  Motility Reduction (%): 5%
[3]; 3.1 x 10^-6 M, 72 h
  Motility Reduction (%): 33%
[3]; 3.1 x 10^-6 M, 96 h
  Motility Reduction (%): 31%
[3]; 3.1 x 10^-6 M, 120 h
  Motility Reduction (%): 40%
[3]; 5.0 x 10^-5 M, 24 h
  Motility Reduction (%): 16%
[3]; 5.0 x 10^-5 M, 48 h
  Motility Reduction (%): 9%
[3]; 5.0 x 10^-5 M, 72 h
  Motility Reduction (%): 29%
[3]; 5.0 x 10^-5 M, 96 h
  Motility Reduction (%): 33%
[3]; 5.0 x 10^-5 M, 120 h
  Motility Reduction (%): 44%
[3]; 7.8 x 10^-7 M, 24 h
  Motility Reduction (%): 4%
[3]; 7.8 x 10^-7 M, 48 h
  Motility Reduction (%): 5%
[3]; 7.8 x 10^-7 M, 72 h
  Motility Reduction (%): 20%
[3]; 7.8 x 10^-7 M, 96 h
  Motility Reduction (%): 31%
[3]; 7.8 x 10^-7 M, 120 h
  Motility Reduction (%): 38%
[4]; 1.25 x 10^-5 M
  MTT Reduction (%): 12%
[4]; 3.1 x 10^-6 M
  MTT Reduction (%): 17%
[4]; 5.0 x 10^-5 M
  MTT Reduction (%): 11%
[4]; 7.8 x 10^-7 M
  MTT Reduction (%): 7%
Mammalian tubulin
  affinity to mammalian tubulin: weak affinity
Litomosoides sigmodontis [5]; 2 x 5 mg/kg BID PO 10 days
  jirds with few microfilariae in the peripheral blood: one jird out of four
Litomosoides sigmodontis [5]; 2 x 12.5 mg/kg BID PO 10 days
  jirds with few microfilariae in the peripheral blood: one jird out of five
Litomosoides sigmodontis [5]; jirds, 2 x 5 mg/kg BID PO 10 days, 16 weeks after treatment start
  embryogenesis in recovered female worms (embryogram): embryogenesis was inhibited
Litomosoides sigmodontis [5]; jirds, PO BID 2 x 5 mg/kg for 10 days from 12 wpi, 16 weeks after treatment start
  animals with complete clearance of adult worms: two animals out of four
Litomosoides sigmodontis [5]; jirds, PO BID 2 x 12.5 mg/kg for 10 days from 12 wpi, 16 weeks after treatment start
  animals with complete clearance of adult worms: four animals out of five
Litomosoides sigmodontis [5]; jirds, both oxfendazole groups (2 x 12.5 and 2 x 5 mg/kg BID PO 10 days), 3 weeks after treatment
  microfilariae cleared from the peripheral blood: more than 99%
Brugia pahangi [6]; SC 100mg/kg 5 cons. days
  Reduction of worm burden: 0%
Brugia pahangi [6]; per os 150mg/kg 5 cons. days
  Reduction of worm burden: 33%
[7]
  tolerability in healthy volunteers: acceptable side effects
[8]; 1.25·10^−5 M
  microfilariae motility decrease: 53%
[8]; 5·10^−5 M
  microfilariae motility decrease: 67%
[8]; concentrations lower than 1.25·10^−5 M
  effect on microfilariae motility: No effect
[9]; based on subcutaneous treatment at 25 mg/kg in mice, pharmacokinetic analysis
  minimal efficacious concentration: approximately 100 ng/ml
[9]; mice, BID oral 2 x 5.0 mg/kg for 10 consecutive days
  macrofilaricidal efficacy: above 85%
[9]; mice, BID oral 2 x 12.5 mg/kg for 5 days
  macrofilaricidal efficacy: above 85%
[9]; [12]
  median adult worms: 20 worms
  range of adult worms: 1–47 worms
  reduction of the adult worm burden: 0%
[9]; [13]
  median adult worms: 6.5 worms
  range of adult worms: 1–16 worms
  reduction of the adult worm burden: 23.5%
[9]; [14]
  median adult worms: 1 worm
  range of adult worms: 0–4 worms
  reduction of the adult worm burden: 87.2%
[9]; [15]
  adult worm burden reduction: 16.7%
  median adult worms: 5 adult worms
  range of adult worms: 1–12 worms
[9]; [16]
  adult worm burden reduction: 100%
  median adult worms: 0 adult worms
  range of adult worms: 0–5 worms
[9]; mice, PO BID 2 x 12.5 mg/kg for 5 days from 35 dpi, necropsy 78 dpi
  adult worm reduction: 100%
[9]; mice, PO BID 2 x 25 mg/kg for 5 days from 35 dpi, necropsy 75 dpi
  adult worm burden reduction: 100%
[9]; mice, SC 1 mg/kg QD for 5 days from 35 dpi, necropsy 78 dpi
  macrofilaricidal outcome: no significant reduction of the worm burden
[9]; mice, SC 5 mg/kg QD for 5 days from 35 dpi, necropsy 78 dpi
  macrofilaricidal outcome: sterile cure was achieved in all mice except one
[9]; mice, SC 25 mg/kg QD for 5 days from 35 dpi, necropsy 78 dpi
  macrofilaricidal outcome: Sterile cure was achieved
[9]; mice, single oral BID dosing, doses up to 125 mg/kg, start 33 dpi, 75 dpi
  macrofilaricidal outcome: did not lead to a significant reduction
[10]
  clearance: ~0.4 mL/min/kg
[10]; Vol. of Distribution (Vss), Final
  Vd: ~0.5 L/kg
[10]; hepatocytes
  CLhep predicted: 0.4 mL/min/kg
[10]; po
  bioavailability: 30%
L. loa microfilariae
  microfilaricidal efficacy against L. loa: lacks such a microfilaricidal efficacy
[11]
  cardiovascular effects: did not raise safety concerns
Onchocerca lupi
  dermal microfilariae numbers: no significant decrease in dermal microfilariae numbers
Mouse lymphoma assay
  toxicity in mouse lymphoma assay: did not exhibit toxicity
